According to patent US20210317143A9, “BORONIC ESTER PRODRUGS AND USES THEREOF” (Massachusetts Institute of Technology, priority 2019, published 2021):

How the values were obtained:
MM.1S cells = test: In vitro cell viability assay (Celltiter glo) in MM.1S; assay type: cell-based; details: Homo sapiens, MM1.S, effect on cell proliferation after 48 h of incubation
Procedure: (§1) The effect on cell proliferation after 48 h of incubation with each agent was compared.
(§2) Both cell lines were cultured in RPMI media (ThermoFisher Scientific) supplemented with 10% FBS (VWR), 1% Penicillin/Streptomycin (ThermoFisher Scientific), and 1% glutamine (ThermoFisher Scientific). MM.1SLuc+/GFP+ cells were generated by retroviral transduction and authenticated by short tandem repeat DNA profiling. All cell lines were confirmed to be mycoplasma negative using the kit MycoAlert Mycoplasma (Lonza). Cell lines were housed in 5% CO2 and 37° C., incubators.
(§3) Cells were plated at 10,000 cells/well in a 96 well plate overnight and then treated for 48 hours with either bortezomib (Btz) or Btz-bottlebrush (BBP) at various concentrations. Cell viability assay was performed using the Celltiter glo reagent kit (Promega).
(§4) Toxicological studies were carried out including in vitro cell viability experiments and in vivo survivability studies (FIGS. 8A to 8B and FIG. 9A, respectively). The in vitro cell viability studies were carried out in both MM S model (for experimental details see Manier, S, et al., Science Translational Medicine 2017, 9, 389) and KMS11 flank cancer model. […] For the maximum tolerated dose (MTD) studies, animals (n=3-5) were dosed 4 times, with the exception that the 20 mg/kg group was dosed three times.

KMS11 subcutaneous tumor = test: Efficacy study in subcutaneous model of MM (KMS11); assay type: in vivo, mice; details: 0.75 mg/kg twice a week (Btz at MTD; Btz-BBP dose-match, intravenous)
Procedure: Treatments were administered over a period of 50 days, after which tumor were left to freely progress.
The subcutaneous model of MM was generated with an injection of 3 million KMS11 cells in the hind flank of NCR nude mice. […] Tumor growth was monitor by caliper measurements (tumor measurement. TM). Once the tumor reached 1 cm in diameter, mice were randomly attributed to a treatment group. […] Drug was injected twice a week for a period of 4 weeks (8 injections in total) after mice were enrolled in the study. Mice body weight were tracked till day 50 (body weight measurement, BWM). Animals were sacrificed once the tumor reached 2 cm in the longest axis.

MM.1SLuc+/GFP+ cells = details: 0.75 mg/kg (free Btz MTD; Btz-BBP dose-match)
Procedure: The tumors were induced via intravenous injection of MM.1SLuc+/GFP+ cells, and tumor progression was quantified by bioluminescence via the luciferase signal expressed by the MM.1S cells (FIGS. 12A to 12F). […] Mice (n=5) were treated for 30 days with the same treatment groups and dosing schedule described in the previous tumor model.
The orthotopic model of MM was obtained by injecting intravenously 1.5 million MM.1SLuc+/GFP+ cells in the tail vain of SCID/beige mice. Tumor dissemination was assessed by IVIS imaging (IVIS Spectrum. Perkin Elmer, bioluminescence imaging, BLI) once a week. […] Drug was injected twice a week for a period of 2 weeks (4 injections in total). Tumor burden response was obtained by IVIS imaging performed once a week. After 25 days, treatment was stopped. Endpoint criteria of the study was hind limb paralysis or loss of >20% of their initial body weight.

KMS11 cells = test: In vitro cell viability assay (Celltiter glo) in KMS11; assay type: cell-based; details: Homo sapiens, KMS-11; KMS11, effect on cell proliferation after 48 h of incubation
Procedure: as §1, §2, §3, §4

healthy BALB/c mice = test: In vivo toxicity / maximum tolerated dose in healthy BALB/c mice; details: twice a week
Procedure: (§5) Mice were euthanized if their body weight reached a 20% loss.
as §4

[1] = as above; details: BALB/c, mouse, in vivo, subcutaneous
Procedure: as §5, §4

CC(C)C[C@H](NC(=O)[C@H](Cc1ccccc1)NC(=O)c1cnccn1)B(O)O [Btz, bortezomib]
IC50 (MM.1S cells): 3.5 ± 1.4 nM
mean survival time (KMS11 subcutaneous tumor): 42 ± 6 days
therapeutic improvement (MM.1SLuc+/GFP+ cells): diminished improvements
IC50 (KMS11 cells): 29.9 ± 1.6 nM
survival rates at higher doses (healthy BALB/c mice; free Btz above 0.75 mg/kg (1, 1.25 mg/kg)): rapid decrease of the survival rates
well-tolerated / safe dose (healthy BALB/c mice; healthy BALB/c mice): 0.75 mg/kg
MTD at 4 weeks [1]: 0.75 mg/kg
